From patent publication US20100022637A1, “IDENTIFICATION OF ANTI-CANCER COMPOUNDS AND COMPOUNDS FOR TREATING HUNTINGTON'S DISEASE AND METHODS OF TREATMENT THEREOF” (THE TRUSTEES OF COLUMBIA UNIVERSITY IN THE CITY OF NEW YORK, priority 2005, published 2010)
Converted amounts (≈) assume the structure as drawn. Values belong to the compound of their own block, whether it stands above or below them.

Key:
[1] = system: N548 mutant cells; assay: in vitro; conditions: for Activity: scale not defined; for selectivity profile of cell death rescue in panel of htt expressing cell lines: N63, N548, FL htt cell lines
[2] = system: parental ST14A cells; assay: Cell death rescue in parental cells (selectivity counter screen); format: cell-based, rat; conditions: in words
Description: Cell death is indicated by a decrease in fluorescence. […] (with 5% CO2).
Identification of selective inhibitors of mutant-htt toxicity: As a first step towards probing mechanisms of action of these compounds, it was tested whether compounds selectively targeted pathways that are perturbed by mutant htt or if they suppressed a general death mechanism. Caspase activation was tested to see if it contributed to cell death in this model, since caspase-dependent pathways have been broadly implicated in cell death and in HD (Thornberry, N. and Y. Lazebnik, Science 1998, 281:1312-6; Sanchez Mejia, R and R. Friedlander Neuroscientist 2001, 7: 480-9; Hickey M. and M. Chesselet, Prog Neuropsychopharmacol Biol Psych 2003, 27: 255-65). Caspase activation was monitored via measuring the cleavage of specific fluorogenic caspase substrates. […] The decreased caspase activation in WT N548 cells was consistent with relative protection of these cells from cell death. […] Thus, the ability of a compound to rescue cell death in ST14A cells could be used as a selectivity filter to differentiate compounds that were selective for pathways selective for mutant htt induced cell death. The selectivity of rescue by a compound was determined by assessing rescue of cell death in parental ST14A cells. […]

[3] = system: caspases; assay: Caspase assay (fluorogenic AFC substrates); format: cell-based, rat; conditions: 50 μM; ST14A and N548 mutant cells, serum deprivation 39° C.
Description: Caspase activity was measured using a fluorogenic assay (Biovision Inc. CA), based on cleavage of AFC (7-amino-4-trifluoromethyl coumarin) from specific AFC-conjugated peptide substrates by activated caspases. Each cell line was seeded at 10^6 cells/plate, incubated overnight at 33° C., and then incubated for 6 h at 39° C. in 0.5% IFS containing medium with or without BOC-D-fmk (50 μM). Four plates/sample were harvested in lysis buffer provided by the manufacturer. Peptide substrates were added to the cell lysate or to lysis buffer (control), incubated at 37° C. for 2 h, and fluorescence (ex 355/em 510 nm) measured on a plate reader (Perkin Elmer Victor^3). Fluorescence intensities of controls were subtracted from sample intensity and the resulting value normalized to protein in each sample (Bradford Assay from BioRad; Hercules, Calif.).

[4] = system: RKO-E6 cells; assay: Alamar Blue viability assay, RKO-E6; format: cell-based, human; conditions: for effect on doxorubicin's lethality in RKO-E6 cells: co-treatment with 0.5 μg/ml doxorubicin, 24 h
Description: (§1) RKO colon carcinoma, human (ATCC, order # CRL-2577), RKO-E6 colon carcinoma transfected with HPV E6 inserted in pCMV.3 (ATCC, order # CRL-2578) were grown in MEM with 2 mM L-glutamine and Earle's BBS adjusted to contain 1.5 g/L NaHCO3, 0.1 mM non-essential amino acids and 1.0 mM sodium pyruvate, and supplemented with 10% fetal bovine serum, penicillin and streptomycin (pen/strep). Both cell lines were incubated at 37° C. in a humidified incubator containing 5% CO2.
The Alamar Blue assay incorporates a fluorimetric/colorimetric growth indicator that changes color in the response to chemical reduction by viable cells (Nociari 1998). Cells were seeded at a density of 3,000 cells (57 μl) per well in a 384-well black, clear-bottom plates using a syringe bulk dispenser (Zymark Sciclone ALH). Three microliters were removed from a compound daughter plate using a 384 fixed cannula head and added to the assay plate, making the final concentration 4 μg/ml. The plates were incubated for 24 h at 37° C. 10 μl of 40% Alamar Blue (Biosource Int., cat #DAL1100) solution in media was added to each well (1:10 dilution). The assay plates were incubated for 16h. Fluorescence intensity was determined using a Packard Fusion platereader with a 535 nm excitation filter and a 590 nm emission filter. The average fluorescence for the whole plate was used as a positive control. Average percentage inhibition for each well was determined using our freely available SLIMS software (Kelley et al., 2004).
The daughter plates for the 2-fold dilution series were prepared with a Zymark Sciclone ALH by diluting the replica daughter plates to obtain compound concentrations from 8 μg/ml-0.008 μg/ml (columns 8-18). Columns 1-7 were used as untreated control. RKO-E6 cells were seeded at the density of 3,000 per well in 55 μl, and 5 μl were added from the daughter plate. RKO cells were seeded at the density of 2,000 per well in 55 μl, and 5 μl were added from the daughter plate. The assay was incubated for 24 h at 37° C. 10% Alamar Blue was added to each well and the assay was incubated for 16 h (see above). Compounds for retesting were purchased from the manufacturers or from Sigma-Aldrich (see above). Stocks were prepared in DMSO at 4 mg/ml.
(§2) Each cell line (RKO, RKO-E6, HeLa and TC32) was treated with a dose combination matrix of doxorubicin and a selected hit compound. Each treatment was done in a triplicate in 384-well format. The average percent inhibition of cell proliferation, measured with Alamar Blue, was determined using the following formula: […]

[5] = system: RKO cells; assay: Alamar Blue viability assay, RKO; format: cell-based, human; conditions: in words
Description: as §1
The Alamar Blue assay incorporates a fluorimetric/colorimetric growth indicator that changes color in the response to chemical reduction by viable cells (Nociari 1998). Cells were seeded at a density of 3,000 cells (57 μl) per well in a 384-well black, clear-bottom plates using a syringe bulk dispenser (Zymark Sciclone ALH). […] Fluorescence intensity was determined using a Packard Fusion platereader with a 535 nm excitation filter and a 590 nm emission filter. The average fluorescence for the whole plate was used as a positive control. Average percentage inhibition for each well was determined using our freely available SLIMS software (Kelley et al., 2004). […]
Each cell line (RKO, RKO-E6, HeLa and TC32) was treated with a dose combination matrix of doxorubicin and a selected hit compound. […] The average percent inhibition of cell proliferation, measured with Alamar Blue, was determined using the following formula: […]

[6] = system: HeLa, TC32, A673, BJELR cells; assay: Alamar Blue viability assay, other cancer cell lines; format: cell-based; conditions: TC32 (A673 for T55D7)
Description: as §2

[7] = system: p53; assay: Western blot of p53 (p21, MDM2) levels; format: cell-based, human; conditions: RKO-E6 cells; in words
Description: Protein content was quantified using a BioRad protein assay reagent (BioRad, cat #500-0006). Equal amounts of protein were resolved on SDS-polyacrylamide gels. Proteins were transferred onto a PVDF membrane, blocked with 5% milk, and incubated with the appropriate primary and secondary antibodies. […] To test for equivalent loading in each lane, blots were stripped, blocked and probed with an anti-eIF-4E antibody.

[8] = system: RKO-E6 cells; assay: Flow cytometry cell cycle distribution, RKO-E6; format: cell-based, human; conditions: 24 h, propidium iodide
Description: (§3) RKO, RKO-E6 or HeLa cells were seeded in 20-cm dishes in 10 ml of growth medium. Cells were allowed to adhere and then treated with the selected compounds for 24 h. The treated cells were collected, washed 2× with PBS and counted. The cell pellet was re-suspended in 500 μl of ice cold PBS and 2-5 ml of cold 70% ethanol (−20° C.) were added. Cells were fixed for 1 h or overnight. 5-10 million cells were placed into a 15-ml conical tube and centrifuged at 1000 g. Cells were washed 2× with 1% calf serum in PBS. Cells were resuspended in 800 μl of 1% calf serum in PBS and 100 μl of Rnase (1 mg/ml) and 100 μl of propidium iodide (400 μg/ml) added. Cells were incubated at 37° C. for 30 min and then analyzed on flow cytometer.

[9] = system: RKO cells; assay: Flow cytometry cell cycle distribution, RKO; format: cell-based, human; conditions: 24 h, propidium iodide
Description: as §3

[10] = in vitro; conditions: rat
[11] = system: N2 worms; conditions: 6 mM; cited from earlier work
[12] = system: topoisomerase IIα; assay: Western blot of topoisomerase IIα level; format: cell-based, human; conditions: RKO and/or RKO-E6 cells; in words
From the text: Antibodies were obtained form the following suppliers: p53 (Oncogene/Calbiochem, cat #OP43), p21 (Santa Cruz Biotechnology inc., cat #sc-817), MDM2 (Santa Cruz Biotechnology Inc., cat #sc-965), Topoisomerase IIα (TopoGEN, cat #2011-1), Topoisomerase I (BD PharMingen, cat #556597), Cyclin B (BD Transduction Laboratories, cat #610219), Cyclin A (BD Transduction Laboratories, cat #611268), Anti-Fluorescein-HRP (Molecular Probes, cat #A21253), Anti-biotin-HRP (Cell Signaling Technology, cat #7075, Jackson ImmunoResearch Laboratories, cat #200-032-096), eIF4E (Santa Cruz Biotechnology Inc., cat #sc-9976 HRP).
Cells were lysed in denaturing lysis buffer (50 mM HEPES KOH [pH 7.4], 40 mM NaCl, 2 mM EDTA, 1.5 mM Na3VO4, 50 mM NaF, 10 mM sodium pyrophosphate, 10 mM sodium β-glycerophosphate, 0.5% Triton X-100, and protease inhibitor tablet [Roche, cat #11777700]). Protein content was quantified using a BioRad protein assay reagent (BioRad, cat #500-0006). Equal amounts of protein were resolved on SDS-polyacrylamide gels. Proteins were transferred onto a PVDF membrane, blocked with 5% milk, and incubated with the appropriate primary and secondary antibodies. […]

[13] = system: PC12 expressing Q103 exon 1 htt; assay: PC12 HD model, Alamar Blue viability; format: cell-based
Description: For enhanced stability the repeat portion consists of alternating CAG/CAA repeats. […] Mutant (mut) htt was induced by the ecdysone receptor agonist, tebufenozide.
For the PC12 assay, 7500 cells/well were plated in 384-well plates in 57 μl of PC12 medium with tebufenozide (1 μM). Compounds (3 μl) from daughter plates were added to the cells and incubated at 37° C. After 48 h, 20 μl of 40% Alamar Blue (Biosource, CA) in PC12 media was added per well and cells incubated for 12 h at 37° C. […] Fluorescence intensity was determined using a Packard Fusion plate reader with an excitation filter centered on 535 nm and an emission filter centered on 590 nm. Average percentage inhibition at each concentration was calculated.

Structure (SMILES): COC(=O)CC(NC(=O)OC(C)(C)C)C(=O)CF [BOC-D-fmk, reference compound]
rescue of cell death in mutant N548 cells ([1]; in words): rescued cell death | EC50 ([1]; nonselective hits (rescue also parental ST14A), 0.5% IFS, 39° C., 3 d): 25 µM | TC50 ([1]; nonselective hits, maximum concentration tested 80 μM): ND(80) | Activity ([1]; nonselective hits): 3 | rescue of cell death in parental ST14A cells [2]: rescued cell death | caspase activation [3]: prevented caspase activation

Structure (SMILES): S=C1N(CN2CCOCC2)CCN1CN1CCOCC1 [Compound T55D7, 1,3-bis(4-morpholinylmethyl)-2-imidazolidinethione]
concentrations with doxorubicin-independent lethality ([4]; absence of doxorubicin): 30 to 100 µM | effect on doxorubicin's lethality in RKO-E6 cells ([4]; in words): increase both doxorubicin's and camptothecin's lethality | effect on camptothecin's lethality ([4]; co-treatment with camptothecin, in words): increase both doxorubicin's and camptothecin's lethality | effect on podophyllotoxin's lethality ([4]; co-treatment with podophyllotoxin, in words): did not increase the microtubule inhibitor podophylotoxin's lethality | Bliss Independence analysis of combination with doxorubicin ([4]; combination dose matrix): exceeded Bliss Independence with doxorubicin at multiple doses | effect on doxorubicin's lethality in RKO cells [5]: increase both doxorubicin's and camptothecin's lethality | effect on doxorubicin's potency in other cell lines [6]: upregulated doxorubicin's potency in other cell lines | p53, p21, MDM2 levels [7]: did not change p53 concentration | cell cycle effect in RKO-E6 cells [8]: pronounced S-phase arrest | cell cycle effect in RKO cells [9]: virtually no changes in the cell cycle

EC50 ([1]; Rattus norvegicus, ST14A, 72 h): 5 µM
Structure (SMILES): O=C(O)c1ccccc1Nc1cccc(C(F)(F)F)c1 [Flufenamic Acid, reference compound]
CC50 at 3 days ([10]; ST14A striatal cells expressing N548 mutant human htt): 40 µM | Activity ([1]; nonselective hits): 1.5

Structure (SMILES): CC[n+]1c(-c2ccccc2)c2cc(N)ccc2c2ccc(N)cc21 [Homidium Bromide, reference compound]
CC50 [10]: 15 µM | EC50 ([1]; Rattus norvegicus, ST14A, 72 h): 10 µM | Activity ([1]; nonselective hits): 1.5

Structure (SMILES): C[n+]1ccc(-c2cc[n+](C)cc2)cc1 [Paraquat]
toxicity in worms [11]: toxic

Structure (SMILES): C[C@@H]1C[C@@H]([C@H](O)CC2CC(=O)NC(=O)C2)C(=O)[C@@H](C)C1 [cycloheximide]
effect on doxorubicin's lethality in RKO-E6 cells ([4]; in words): potentiated doxorubicin's lethality | p53, p21, MDM2 levels [7]: caused a disappearance of p53 and p21 | topoisomerase IIα levels [12]: caused increased topoisomerase IIα levels

Structure (SMILES): CCCCCCCCCC(=O)Oc1cc(-c2ccccc2)nn1-c1cccc(F)c1 [revertin-1c]
selectivity profile of cell death rescue in panel of htt expressing cell lines ([1]; in words): selectively rescued cell death in all mutant htt-expressing cell lines | selectivity profile of cell death rescue in panel of htt expressing cell lines ([1]; in words, listed as Rev-1c): selectively rescues cell death in three mutant htt expressing cell lines | maximal fold induction ([1]; Rattus norvegicus, 72 h, read-out: N548 Mut: Max, maximum rescue expressed as fold over DMSO treated N548 mutant cells): 2.5 | EC50 ([1]; Rattus norvegicus, read-out: EC50 based on activity in N548 mutant cells): 4 µg/mL | rescue of cell death in parental ST14A cells [2]: not in parental ST14A cells | EC50 ([13]; Rattus norvegicus, PC-12, unit inferred): 40 µg/mL (≈ 97.9 µM) | PC12 rescue: percent increase in viability in compound treated cells above DMSO treated ([13]; — = no activity in the assay (footnote n.a.)): 23%
